The source of these data is patent US9790219B2, “Compounds, compositions, and methods for increasing CFTR activity” (Proteostasis Therapeutics, Inc., priority 2014, dated 2017).

In assay [1] the target is T1, ΔF508-CFTR (Homo sapiens, UniProt P13569, DEL508-508).
T1 construct: Primary lung epithelial cells homozygous for the Cystic Fibrosis-causing ΔF508 mutation; endogenous in cells; host or cells: primary human lung (bronchial) epithelial cells homozygous for ΔF508, differentiated at air-liquid interface
T1 sequence (P13569 with tags, fused parts or gaps DEL508-508): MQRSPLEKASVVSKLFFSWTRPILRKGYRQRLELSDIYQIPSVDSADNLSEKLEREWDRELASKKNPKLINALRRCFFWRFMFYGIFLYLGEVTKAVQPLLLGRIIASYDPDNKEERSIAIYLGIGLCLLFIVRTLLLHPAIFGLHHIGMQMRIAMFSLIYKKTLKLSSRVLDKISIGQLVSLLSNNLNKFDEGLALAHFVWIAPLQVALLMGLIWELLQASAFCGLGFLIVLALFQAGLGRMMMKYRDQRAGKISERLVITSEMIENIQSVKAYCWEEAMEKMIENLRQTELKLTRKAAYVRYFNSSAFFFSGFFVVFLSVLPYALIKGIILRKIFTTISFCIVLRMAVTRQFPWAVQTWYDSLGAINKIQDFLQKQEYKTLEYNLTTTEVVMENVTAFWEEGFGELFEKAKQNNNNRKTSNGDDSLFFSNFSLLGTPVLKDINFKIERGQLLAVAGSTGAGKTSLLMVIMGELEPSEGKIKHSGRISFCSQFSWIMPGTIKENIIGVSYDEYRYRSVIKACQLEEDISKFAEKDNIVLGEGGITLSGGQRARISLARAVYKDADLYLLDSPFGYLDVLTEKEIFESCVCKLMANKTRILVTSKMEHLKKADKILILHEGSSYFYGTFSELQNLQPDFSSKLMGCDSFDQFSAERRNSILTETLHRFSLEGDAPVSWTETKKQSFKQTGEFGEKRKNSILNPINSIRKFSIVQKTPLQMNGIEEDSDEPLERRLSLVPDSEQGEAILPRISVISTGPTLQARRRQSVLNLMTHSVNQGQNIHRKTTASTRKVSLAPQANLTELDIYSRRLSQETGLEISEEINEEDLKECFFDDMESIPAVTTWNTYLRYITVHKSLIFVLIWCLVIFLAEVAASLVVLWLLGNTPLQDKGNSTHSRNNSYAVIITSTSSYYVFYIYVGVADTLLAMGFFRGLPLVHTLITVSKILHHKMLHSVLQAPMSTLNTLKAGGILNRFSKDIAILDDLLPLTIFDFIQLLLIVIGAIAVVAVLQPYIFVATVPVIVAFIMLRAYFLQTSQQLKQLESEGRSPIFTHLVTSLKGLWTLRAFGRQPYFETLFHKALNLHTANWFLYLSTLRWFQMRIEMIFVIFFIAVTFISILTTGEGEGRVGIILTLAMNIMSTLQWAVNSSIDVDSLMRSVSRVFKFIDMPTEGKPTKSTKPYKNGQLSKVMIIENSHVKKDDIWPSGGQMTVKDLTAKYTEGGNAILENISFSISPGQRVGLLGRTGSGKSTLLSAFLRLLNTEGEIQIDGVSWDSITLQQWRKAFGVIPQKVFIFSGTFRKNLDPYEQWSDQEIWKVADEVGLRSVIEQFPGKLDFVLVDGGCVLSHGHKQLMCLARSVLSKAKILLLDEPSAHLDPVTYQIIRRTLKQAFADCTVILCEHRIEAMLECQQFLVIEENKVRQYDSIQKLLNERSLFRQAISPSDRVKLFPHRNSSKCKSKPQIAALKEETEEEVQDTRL
The assay can be described thus: hBE equivalent current (Ieq) assay. It counts as cell-based. As to conditions: AUC of equivalent chloride current, primary hBE homozygous ΔF508, 24 h treatment. The protocol:
Primary lung epithelial cells homozygous for the Cystic Fibrosis-causing ΔF508 mutation were differentiated for a minimum of 4 weeks in an air-liquid interface on Costar 24 well HTS filter plates prior to the equivalent current (Ieq) measurements. Cells were apically mucus-washed for 30 minutes 24 h prior to treatment with compounds. The basolateral media was removed and replaced with media containing the compound of interest diluted to its final concentration from DMSO stocks. Treated cells were incubated at 37° C. and 5% CO2 for 24 hours. At the end of the treatment period, the media was changed to the Ieq experimental solution for 30 minutes before the experiment and plates are maintained in a CO2-free incubator during this period. The plates containing the cells were then placed in pre-warmed heating blocks at 36° C.±0.5 for 15 minutes before measurements are taken. The transepithelial voltage (VT) and conductance (GT) were measured using a custom 24 channel current clamp (TECC-24) with 24 well electrode manifold. The Ieq assay measurements were made following additions with standardized time periods: • 1. The baseline VT and GT values were measured for approximately 20 minutes. • 2. Benzamil was added to block ENaC for 15 minutes. • 3. Forskolin plus VX-770 were added to maximally activate ΔF508-CFTR for 27 minutes. • 4. Bumetanide was added to inhibit the NaK2Cl cotransporter and shut-off secretion of chloride.
The activity data captured was the area under the curve (AUC) for the traces of the equivalent chloride current. The AUC was collected from the time of the forskolin/VX-770 addition until the inhibition by bumetanide addition. Correction in response to compound treatment was scored as the increase in the AUC for compound-treated samples over that of vehicle-treated samples. The results are shown below in Table 2 (++indicates activity ≧25% run at 10 uM of VX-809 at 1 uM; +indicates activity 10 to <25% run at 10 uM of VX-809 at 1 uM; ** indicates activity ≧200% of VX-809 (1 uM) with compound at 10 uM and VX-809 at 1 uM; * indicates activity 100-200% of VX-809 (1 uM) with compound at 10 uM and VX-809 at 1 uM)

Assay [2] has as its target T1, ΔF508-CFTR. The assay can be described thus: Ussing measurements. As to conditions: CFTRinh-172 inhibitable short-circuit current, primary hBE homozygous ΔF508, 24 h treatment. It counts as cell-based. The protocol:
As discussed above, Ussing measurements can be used to measure CFTR activity. In this method, primary lung epithelial cells (hBEs) homozygous for the Cystic Fibrosis-causing ΔF508 mutation are differentiated for a minimum of 4 weeks in an air-liquid interface on SnapWell filter plates prior to the Ussing measurements. Cells are apically mucus-washed for 30 minutes prior to treatment with compounds. The basolateral media is removed and replaced with media containing the compound of interest diluted to its final concentration from DMSO stocks. Treated cells are incubated at 37° C. and 5% CO2 for 24 hours. At the end of the treatment period, the cells on filters are transferred to the Ussing chamber and equilibrated for 30 minutes. The short-circuit current is measured in voltage clamp-mode (Vhold=0 mV), and the entire assay is conducted at a temperature of 36° C.-36.5° C. Once the voltages stabilized, the chambers are clamped, and data is recorded by pulse readings every 5 seconds. Following baseline current stabilization, the following additions can be applied and the changes in current and resistance of the cells can be monitored: • 1. Benzamil to the apical chamber to inhibit ENaC sodium channel. • 2. Forskolin to both chambers to activate ΔF508-CFTR by phosphorylation. • 3. Genistein to both chambers to potentiate ΔF508-CFTR channel opening. • 4. CFTRinh-172 to the apical chamber to inhibit ΔF508-CFTR Cl-conductance.
The inhibitable current (that current that is blocked by CFTRinh-172) is measured as the specific activity of the ΔF508-CFTR channel, and increases in response to compound in this activity over that observed in vehicle-treated samples are identified as the correction of ΔF508-CFTR function imparted by the compound tested.

Where [3] appears, read: compound alone at 10 uM, relative to VX-809 at 1 uM.
Where [4] appears, read: compound at 10 uM together with VX-809 at 1 uM, relative to VX-809 (1 uM).

As to `O=C(NCCc1nnc(CO)o1)c1cc(-c2ccccc2)on1` [Compound A1, N-(2-(5-(hydroxymethyl)-1,3,4-oxadiazol-2-yl)ethyl)-5-phenylisoxazole-3-carboxamide], the “Ieq Activity” value was “++ (++indicates activity ≧25% run at 10 uM of VX-809 at 1 uM)” at ΔF508-CFTR [1] (setting [3]); “** (** indicates activity ≧200% of VX-809 (1 uM) with compound at 10 uM and VX-809 at 1 uM)” at ΔF508-CFTR [1] (setting [4]). The Ussing entry was “++ (++indicates activity ≧25% run at 10 uM of VX-809 at 1 uM)” on ΔF508-CFTR [2] (setting [3]); “** (** indicates activity ≧200% of VX-809 (1 uM) with compound at 10 uM and VX-809 at 1 uM)” at ΔF508-CFTR [2] (setting [4]).
As for `O=C(NCCc1nnc(CO)s1)c1cc(-c2ccccc2)on1` [Compound A2, N-(2-(5-(hydroxymethyl)-1,3,4-thiadiazol-2-yl)ethyl)-5-phenylisoxazole-3-carboxamide], the “Ieq Activity” value is “++ (++indicates activity ≧25% run at 10 uM of VX-809 at 1 uM)” at ΔF508-CFTR [1] (setting [3]); “** (** indicates activity ≧200% of VX-809 (1 uM) with compound at 10 uM and VX-809 at 1 uM)” at ΔF508-CFTR [1] (setting [4]). In addition, the Ussing result at ΔF508-CFTR [2] (setting [3]) is “++ (++indicates activity ≧25% run at 10 uM of VX-809 at 1 uM)”; on ΔF508-CFTR [2] (setting [4]), “** (** indicates activity ≧200% of VX-809 (1 uM) with compound at 10 uM and VX-809 at 1 uM)”.
For the compound `C[C@H](O)c1nnc(CCNC(=O)c2cc(-c3ccccc3)on2)s1` [Compound A17, (S)-N-(2-(5-(1-hydroxyethyl)-1,3,4-thiadiazol-2-yl)ethyl)-5-phenylisoxazole-3-carboxamide], the “Ieq Activity” value at ΔF508-CFTR [1] (setting [4]) was “** (** indicates activity ≧200% of VX-809 (1 uM) with compound at 10 uM and VX-809 at 1 uM)”. At ΔF508-CFTR [2] (setting [4]), the Ussing result was “** (** indicates activity ≧200% of VX-809 (1 uM) with compound at 10 uM and VX-809 at 1 uM)”.
Turning to `C[C@H](O)c1nnc(CCNC(=O)c2cc(-c3ccccc3)on2)o1` [Compound A18, (S)-N-(2-(5-(1-hydroxyethyl)-1,3,4-oxadiazol-2-yl)ethyl)-5-phenylisoxazole-3-carboxamide], the “Ieq Activity” value at ΔF508-CFTR [1] (setting [4]) is “** (** indicates activity ≧200% of VX-809 (1 uM) with compound at 10 uM and VX-809 at 1 uM)”. For the same compound, the Ussing entry on ΔF508-CFTR [2] (setting [4]) is “** (** indicates activity ≧200% of VX-809 (1 uM) with compound at 10 uM and VX-809 at 1 uM)”.
As for `O=C(NCCc1nnc([C@H](O)CO)o1)c1cc(-c2ccccc2)on1` [Compound A19, (R)-N-(2-(5-(1,2-dihydroxyethyl)-1,3,4-oxadiazol-2-yl)ethyl)-5-phenylisoxazole-3-carboxamide], the “Ieq Activity” value at ΔF508-CFTR [1] (setting [4]) is “** (** indicates activity ≧200% of VX-809 (1 uM) with compound at 10 uM and VX-809 at 1 uM)”. Besides, the Ussing entry at ΔF508-CFTR [2] (setting [4]) is “** (** indicates activity ≧200% of VX-809 (1 uM) with compound at 10 uM and VX-809 at 1 uM)”.
As for `O=C(NCCc1nnc([C@H](O)CO)s1)c1cc(-c2ccccc2)on1` [Compound A20, (R)-N-(2-(5-(1,2-dihydroxyethyl)-1,3,4-thiadiazol-2-yl)ethyl)-5-phenylisoxazole-3-carboxamide], the “Ieq Activity” value on ΔF508-CFTR [1] (setting [4]) is “** (** indicates activity ≧200% of VX-809 (1 uM) with compound at 10 uM and VX-809 at 1 uM)”. In addition, the Ussing entry on ΔF508-CFTR [2] (setting [4]) was “** (** indicates activity ≧200% of VX-809 (1 uM) with compound at 10 uM and VX-809 at 1 uM)”.
For `O=C(NCCc1nnc([C@@H](O)CO)s1)c1cc(-c2ccccc2)on1` [Compound A21, (S)-N-(2-(5-(1,2-dihydroxyethyl)-1,3,4-thiadiazol-2-yl)ethyl)-5-phenyl isoxazole-3-carboxamide], the “Ieq Activity” value on ΔF508-CFTR [1] (setting [4]) was “** (** indicates activity ≧200% of VX-809 (1 uM) with compound at 10 uM and VX-809 at 1 uM)”. Also, the Ussing result at ΔF508-CFTR [2] (setting [4]) was “** (** indicates activity ≧200% of VX-809 (1 uM) with compound at 10 uM and VX-809 at 1 uM)”.
Consider `O=C(NCCc1nnc([C@@H](O)CO)o1)c1cc(-c2ccccc2)on1` [Compound A22, (S)-N-(2-(5-(1,2-dihydroxyethyl)-1,3,4-oxadiazol-2-yl)ethyl)-5-phenyl isoxazole-3-carboxamide carboxamide], for which the “Ieq Activity” value at ΔF508-CFTR [1] (setting [4]) is “** (** indicates activity ≧200% of VX-809 (1 uM) with compound at 10 uM and VX-809 at 1 uM)”. Besides, the Ussing result on ΔF508-CFTR [2] (setting [4]) is “** (** indicates activity ≧200% of VX-809 (1 uM) with compound at 10 uM and VX-809 at 1 uM)”.
